# Laboratory results as given in ChEMBL document CHEMBL1201862, “PubChem BioAssay data set” (2004).
# The source made the active and inactive calls.
# Legend:
# [1] = cytotoxicity in HEK-293T cells, dose response, cytotoxicity control for BCR NF-kB inhibitor project, luminescence, B-cell screen hits (AID 489021); format: functional, cell-based;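 further: HEK-293T cells carrying an NF-kB luciferase reporter; cells exposed to compound for about 14 hours before viability readout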
# HeLa = experiment: HeLa cell cytotoxicity, dose response, cytotoxicity control, 24 h, cherry-picked samples (AID 504726); format: functional, cell-based; details: Homo sapiens;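 further: potency for cytotoxicity as loss of luminescence signal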
# [2] = LGR2 antagonists, dose response, cell-based, HEK293, CRE-luciferase reporter, cherry pick, set 2 (AID 743343); format: functional;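 further: transfected cells were stimulated with diluted bursicon conditioned medium after compound addition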
# [3] = target: Luciferin 4-monooxygenase (Photinus pyralis, UniProt P08659); experiment: Counter Screen for Luciferase-based Assay Positives. [Related pubchem assays: 620, 618, 411 ]
# HT-1080 = experiment: cytotoxicity in HT1080 fibrosarcoma cells, cell-based, fluorescence readout (AID 620); format: functional; details: Homo sapiens
# [4] = Luminescence Cell-Based Dose Response HTS to Identify Inhibitors of 5'UTR Stem-Loop Driven Prion Protein mRNA Translation in H4 Neuroglioblastoma Cells. [Related pubchem assays: 1827 (Project Summary), 1813 (Primary HTS)]; format: functional
# [5] = inhibitors of SNCA 5'UTR-driven reporter translation, confirmation, H4 neuroglioma cells, luminescence (AID 1988); format: functional, cell-based
# [6] = MC4R antagonists, dose response, counter-screen for LGR2 antagonist project, cell-based, plate reader, cherry pick (AID 743444); format: functional;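 further: transfected HEK 293 cells stimulated with alpha-MSH peptide; potency of inhibitors of the alpha-MSH evoked signal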
# Estrogen receptor = target: T1, Estrogen receptor (Homo sapiens, UniProt P03372); experiment: ERα–SRC-3 coactivator interaction inhibitors, confirmation, orthogonal assay, biochemical, ELISA, streptavidin-HRP readout (AID 1079)
# T1 sequence (P03372 whole entry): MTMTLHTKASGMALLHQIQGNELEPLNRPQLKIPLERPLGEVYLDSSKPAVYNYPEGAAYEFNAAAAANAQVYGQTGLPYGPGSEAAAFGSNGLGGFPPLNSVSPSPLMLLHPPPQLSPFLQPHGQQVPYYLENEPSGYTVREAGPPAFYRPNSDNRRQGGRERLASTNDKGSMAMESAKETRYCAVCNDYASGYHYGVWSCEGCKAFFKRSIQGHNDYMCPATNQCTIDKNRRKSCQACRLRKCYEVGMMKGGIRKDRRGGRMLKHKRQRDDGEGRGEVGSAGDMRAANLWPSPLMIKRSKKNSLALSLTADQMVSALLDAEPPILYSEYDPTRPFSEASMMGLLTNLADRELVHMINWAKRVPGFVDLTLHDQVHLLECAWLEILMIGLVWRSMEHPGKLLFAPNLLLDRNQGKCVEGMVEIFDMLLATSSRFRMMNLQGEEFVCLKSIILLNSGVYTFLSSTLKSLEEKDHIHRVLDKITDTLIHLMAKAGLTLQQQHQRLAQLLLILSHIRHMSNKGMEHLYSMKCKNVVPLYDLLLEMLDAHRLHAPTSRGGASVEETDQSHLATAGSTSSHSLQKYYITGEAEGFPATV
# Caspase-6 = Caspase-6 (Homo sapiens, UniProt P55212); experiment: human caspase-6 inhibitors, dose response, biochemical, VEID-R110 fluorescence, cherry-pick (AID 720632)
# [7] = inhibitors of Bluetongue virus cytopathic effect, confirmation, arbovirus, BSR cells (AID 1250); format: functional;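 further: protection from viral cytopathic effect measured as cell viability by ATP luminescence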
# [8] = THP-1 cell cytotoxicity, dose response, cytotoxicity control for non-replicating M. tuberculosis project (AID 489025); format: functional
# [9] = target: Neuropeptide Y receptor type 2 (Homo sapiens, UniProt P49146); experiment: NPY-Y2 antagonist potency, selectivity check, dose response, counter-screen for NPY-Y1 antagonist project, cell-based (AID 1278); format: functional
# cells = format: functional
# [10] = microbe, parasite or virus in culture; format: functional; details: Mycobacterium tuberculosis
# [11] = target: Neuropeptide Y receptor type 1 (Homo sapiens, UniProt P25929); experiment: NPY-Y1 receptor antagonist potency, dose response, cell-based (AID 1277); format: functional
# Vero = experiment: cells; format: functional; details: Chlorocebus sabaeus
# [12] = A Cell Based Secondary Assay To Explore Cytotoxicity of Compounds that Sensitize Mycobacterium Tuberculosis to Beta-Lactam Antibiotics.; format: functional
# [13] = A cytotoxicity screen of small molecule inhibitors of the PhoP region in Salmonella typhi identified in the primary screen. [Related pubchem assays: 1850, 1864, 1985 ]; format: functional
# [14] = target: Acyl-homoserine lactone acylase PvdQ (Pseudomonas aeruginosa (strain LESB58), UniProt Q9I194); experiment: P. aeruginosa PvdQ acylase inhibitors, dose response, biochemical, fluorescence, plate reader and imaging, cherry-picks (AID 493231)
# [15] = target: Polyadenylate-binding protein 1 (Homo sapiens, UniProt P11940); experiment: PABP poly(A) RNA binding inhibitors, primary screen, biochemical, fluorescence polarization, uHTS (AID 2014)
# [16] = target: Eukaryotic translation initiation factor 4H (Homo sapiens, UniProt Q15056); experiment: human eIF4H binding inhibitors, primary screen, translation initiation inhibitor project, biochemical, uHTS, fluorescence polarization (AID 2012)
# NS3 = NS3 (Hepatitis C virus, UniProt A3EZJ3); experiment: PubChem AID 2173; parameters: species or system Hepacivirus hominis
# [17] = target: Serine/threonine-protein phosphatase (Homo sapiens, UniProt Q9BPW0); experiment: Counterscreen for inhibitors of PP1: fluorescence-based biochemical high throughput dose response assay to identify inhibitors of Protein Phosphatase 5 (PP5). [Related pubchem assays: 2034 (Summary (PP5 inhibitors)), 1987 (PP5 inhibitors in singlate), 2235 (PP1 inhibitors in singlate)]
# [18] = target: Serine/threonine-protein phosphatase PP1-alpha catalytic subunit (Homo sapiens, UniProt P62136); experiment: PP1 phosphatase inhibitors, dose response, biochemical, fluorescence (AID 2403);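 further: phosphatase turnover of OMFP into fluorescent 3-O-methylfluorescein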
# [19] = target: T2, Zinc finger protein mex-5 (Caenorhabditis elegans, UniProt Q9XUB2); experiment: MEX-5/TCR-2 RNA interaction inhibitors, dose response, biochemical, C. elegans, fluorescence polarization (AID 1960)
# T2 sequence (Q9XUB2 whole entry): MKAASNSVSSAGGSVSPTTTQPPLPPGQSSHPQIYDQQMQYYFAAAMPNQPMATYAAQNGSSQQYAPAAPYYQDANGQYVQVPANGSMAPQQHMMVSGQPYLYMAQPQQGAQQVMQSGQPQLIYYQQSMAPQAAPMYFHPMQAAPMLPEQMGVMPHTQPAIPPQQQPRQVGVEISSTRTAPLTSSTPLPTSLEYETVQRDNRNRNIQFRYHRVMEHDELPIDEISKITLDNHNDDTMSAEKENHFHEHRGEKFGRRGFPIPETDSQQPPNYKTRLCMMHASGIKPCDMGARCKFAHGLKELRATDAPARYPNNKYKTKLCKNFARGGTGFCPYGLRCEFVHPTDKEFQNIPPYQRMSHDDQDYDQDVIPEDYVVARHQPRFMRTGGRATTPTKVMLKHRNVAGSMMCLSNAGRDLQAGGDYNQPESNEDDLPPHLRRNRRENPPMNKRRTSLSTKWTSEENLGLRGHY
# Salmon testes DNA = experiment: DNA intercalators displacing acridine orange, dose response, artefact control for KSHV LANA DNA-binding inhibitor project, biochemical, fluorescence polarization, cherry-picked samples, set 2 (AID 504727); parameters: species or system Salmonidae
# [20] = target: T3, RNA-binding protein pos-1 (Caenorhabditis elegans, UniProt G5EF15); experiment: inhibitors of POS-1/mex-3 RNA binding, dose response, biochemical, fluorescence polarization (AID 1964);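 further: purified POS-1 fused to maltose binding protein made in E. coli; potency of compounds blocking POS-1 binding to fluorescent RNA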
# T3 sequence (G5EF15 whole entry): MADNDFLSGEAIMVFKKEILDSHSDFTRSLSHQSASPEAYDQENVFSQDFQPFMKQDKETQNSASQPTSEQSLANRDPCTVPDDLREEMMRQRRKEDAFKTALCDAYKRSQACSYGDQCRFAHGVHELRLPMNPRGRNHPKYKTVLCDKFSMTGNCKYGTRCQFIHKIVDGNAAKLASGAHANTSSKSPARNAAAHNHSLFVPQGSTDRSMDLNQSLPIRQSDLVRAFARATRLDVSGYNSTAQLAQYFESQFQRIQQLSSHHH
# ORF 73 = target: T4, ORF 73 (Human herpesvirus 8, UniProt O40947); experiment: inhibitors of C-LANA binding to LBS DNA, dose response, biochemical, fluorescence polarization, cherry-picked samples (AID 504725); parameters: species or system Human gammaherpesvirus 8;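 further: fluorescence polarization of a labeled DNA duplex reporting LANA DNA binding; potency is for inhibitors that block LANA binding to the DNA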
# T4 sequence (O40947 whole entry): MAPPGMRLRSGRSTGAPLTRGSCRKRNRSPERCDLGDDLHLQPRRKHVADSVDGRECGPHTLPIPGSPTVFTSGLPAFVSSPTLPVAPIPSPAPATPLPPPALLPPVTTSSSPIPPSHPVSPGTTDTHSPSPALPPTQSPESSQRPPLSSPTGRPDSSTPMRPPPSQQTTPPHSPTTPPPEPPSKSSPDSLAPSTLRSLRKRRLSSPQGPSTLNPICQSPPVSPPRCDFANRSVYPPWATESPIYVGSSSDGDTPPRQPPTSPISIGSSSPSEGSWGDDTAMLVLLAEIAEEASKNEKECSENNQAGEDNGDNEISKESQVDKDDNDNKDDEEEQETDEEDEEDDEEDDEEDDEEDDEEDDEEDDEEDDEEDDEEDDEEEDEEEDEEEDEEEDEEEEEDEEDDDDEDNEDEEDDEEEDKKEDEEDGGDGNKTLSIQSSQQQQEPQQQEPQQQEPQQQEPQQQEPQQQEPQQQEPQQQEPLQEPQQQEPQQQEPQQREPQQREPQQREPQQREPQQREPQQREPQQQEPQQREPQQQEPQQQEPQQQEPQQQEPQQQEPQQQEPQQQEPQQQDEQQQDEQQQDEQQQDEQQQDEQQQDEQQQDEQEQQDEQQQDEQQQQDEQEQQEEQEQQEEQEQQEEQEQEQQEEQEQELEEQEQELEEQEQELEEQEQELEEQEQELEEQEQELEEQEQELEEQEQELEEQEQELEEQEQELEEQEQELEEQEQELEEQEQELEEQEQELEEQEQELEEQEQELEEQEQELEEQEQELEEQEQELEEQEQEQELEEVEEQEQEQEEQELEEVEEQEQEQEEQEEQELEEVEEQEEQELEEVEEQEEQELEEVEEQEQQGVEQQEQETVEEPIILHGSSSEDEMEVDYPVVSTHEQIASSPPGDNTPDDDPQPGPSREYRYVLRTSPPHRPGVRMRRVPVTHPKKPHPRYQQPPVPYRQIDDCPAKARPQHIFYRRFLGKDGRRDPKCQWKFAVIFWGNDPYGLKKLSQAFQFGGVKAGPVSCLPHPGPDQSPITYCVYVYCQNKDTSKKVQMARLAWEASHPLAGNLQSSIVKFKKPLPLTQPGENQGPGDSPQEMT
# [21] = target: Signal transducer and activator of transcription 3 (Homo sapiens, UniProt P40763); experiment: STAT3 activators, late-stage profile, late-stage follow-up, cell-based, STAT1 reporter, BCL3 qPCR, cytotoxicity, panel member STAT3 Activation (AID 2049)
# X-box-binding protein 1 = X-box-binding protein 1 (Homo sapiens, UniProt P17861); format: functional, Cricetulus griseus;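 further: confirmatory dose-response counter-screen serving a CHOP assay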
# Sequence of X-box-binding protein 1 (P17861 whole entry): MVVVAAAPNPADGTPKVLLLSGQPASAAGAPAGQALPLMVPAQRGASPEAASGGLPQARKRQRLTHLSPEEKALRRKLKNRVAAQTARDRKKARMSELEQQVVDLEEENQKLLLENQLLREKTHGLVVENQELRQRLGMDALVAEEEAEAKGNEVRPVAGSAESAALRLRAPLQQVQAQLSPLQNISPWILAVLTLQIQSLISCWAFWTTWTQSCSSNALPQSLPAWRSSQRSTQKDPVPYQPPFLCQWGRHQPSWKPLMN
# Sequence of Caspase-6 (P55212 24-179 limits assumed): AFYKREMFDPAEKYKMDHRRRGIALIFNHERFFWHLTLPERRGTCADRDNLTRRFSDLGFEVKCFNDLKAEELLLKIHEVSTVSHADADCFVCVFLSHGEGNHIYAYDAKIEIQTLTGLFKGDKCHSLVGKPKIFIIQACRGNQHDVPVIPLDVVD
# Sequence of Caspase-6 (P55212 194-293 limits assumed): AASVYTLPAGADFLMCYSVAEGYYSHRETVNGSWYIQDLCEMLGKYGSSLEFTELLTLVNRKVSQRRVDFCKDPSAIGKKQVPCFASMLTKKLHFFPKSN
# Sequence of Neuropeptide Y receptor type 2 (P49146 whole entry): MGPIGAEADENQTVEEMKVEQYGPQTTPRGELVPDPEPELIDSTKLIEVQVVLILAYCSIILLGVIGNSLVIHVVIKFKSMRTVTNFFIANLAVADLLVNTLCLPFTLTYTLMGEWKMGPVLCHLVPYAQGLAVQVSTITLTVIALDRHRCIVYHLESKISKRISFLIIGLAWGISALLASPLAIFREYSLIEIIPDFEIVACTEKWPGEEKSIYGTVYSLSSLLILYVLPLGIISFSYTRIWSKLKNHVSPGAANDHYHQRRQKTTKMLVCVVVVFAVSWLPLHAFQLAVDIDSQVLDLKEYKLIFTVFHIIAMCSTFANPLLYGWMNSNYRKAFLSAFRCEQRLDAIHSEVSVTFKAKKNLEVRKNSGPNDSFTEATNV
# Sequence of Neuropeptide Y receptor type 1 (P25929 whole entry): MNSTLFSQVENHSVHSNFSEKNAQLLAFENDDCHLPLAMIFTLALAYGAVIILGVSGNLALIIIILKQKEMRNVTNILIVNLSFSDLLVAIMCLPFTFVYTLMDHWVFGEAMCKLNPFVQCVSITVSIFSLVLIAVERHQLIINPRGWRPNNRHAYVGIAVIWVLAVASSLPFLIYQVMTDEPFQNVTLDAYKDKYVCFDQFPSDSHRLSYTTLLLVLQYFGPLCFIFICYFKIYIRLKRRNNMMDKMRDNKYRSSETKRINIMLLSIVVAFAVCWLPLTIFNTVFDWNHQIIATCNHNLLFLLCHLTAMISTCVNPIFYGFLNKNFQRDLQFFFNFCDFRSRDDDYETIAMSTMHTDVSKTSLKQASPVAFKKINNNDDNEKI
# Sequence of Serine/threonine-protein phosphatase PP1-alpha catalytic subunit (P62136 whole entry): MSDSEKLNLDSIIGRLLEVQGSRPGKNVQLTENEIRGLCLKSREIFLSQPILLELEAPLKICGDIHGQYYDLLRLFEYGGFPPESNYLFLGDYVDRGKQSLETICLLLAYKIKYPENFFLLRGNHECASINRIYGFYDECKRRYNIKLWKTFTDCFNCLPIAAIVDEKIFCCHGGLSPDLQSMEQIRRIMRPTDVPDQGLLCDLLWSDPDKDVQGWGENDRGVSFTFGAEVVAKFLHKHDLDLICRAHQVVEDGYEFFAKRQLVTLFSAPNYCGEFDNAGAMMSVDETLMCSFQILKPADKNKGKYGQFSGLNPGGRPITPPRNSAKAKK
# Sequence of Polyadenylate-binding protein 1 (P11940 whole entry): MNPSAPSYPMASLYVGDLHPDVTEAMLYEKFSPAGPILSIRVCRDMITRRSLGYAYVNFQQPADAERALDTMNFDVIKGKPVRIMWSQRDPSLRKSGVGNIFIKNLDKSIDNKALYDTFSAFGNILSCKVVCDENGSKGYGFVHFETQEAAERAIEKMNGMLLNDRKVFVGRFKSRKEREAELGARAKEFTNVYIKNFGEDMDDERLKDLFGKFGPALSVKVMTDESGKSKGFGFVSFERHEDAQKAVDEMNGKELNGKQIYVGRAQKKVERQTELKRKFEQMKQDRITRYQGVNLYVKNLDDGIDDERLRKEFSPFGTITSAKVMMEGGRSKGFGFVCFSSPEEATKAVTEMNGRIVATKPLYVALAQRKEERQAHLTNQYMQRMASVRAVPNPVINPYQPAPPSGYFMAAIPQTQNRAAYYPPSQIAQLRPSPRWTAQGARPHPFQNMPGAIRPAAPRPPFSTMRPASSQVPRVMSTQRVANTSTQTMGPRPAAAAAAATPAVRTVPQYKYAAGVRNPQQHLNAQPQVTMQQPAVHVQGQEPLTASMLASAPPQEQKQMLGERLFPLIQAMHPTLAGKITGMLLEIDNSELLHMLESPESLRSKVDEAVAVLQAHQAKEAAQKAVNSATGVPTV
# Sequence of Acyl-homoserine lactone acylase PvdQ (Q9I194 24-193 limits assumed): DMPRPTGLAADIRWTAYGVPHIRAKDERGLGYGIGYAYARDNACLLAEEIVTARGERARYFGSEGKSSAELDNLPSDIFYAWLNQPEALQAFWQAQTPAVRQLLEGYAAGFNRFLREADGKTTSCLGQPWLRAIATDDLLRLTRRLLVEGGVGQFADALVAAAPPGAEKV
# Sequence of Acyl-homoserine lactone acylase PvdQ (Q9I194 217-762 limits assumed): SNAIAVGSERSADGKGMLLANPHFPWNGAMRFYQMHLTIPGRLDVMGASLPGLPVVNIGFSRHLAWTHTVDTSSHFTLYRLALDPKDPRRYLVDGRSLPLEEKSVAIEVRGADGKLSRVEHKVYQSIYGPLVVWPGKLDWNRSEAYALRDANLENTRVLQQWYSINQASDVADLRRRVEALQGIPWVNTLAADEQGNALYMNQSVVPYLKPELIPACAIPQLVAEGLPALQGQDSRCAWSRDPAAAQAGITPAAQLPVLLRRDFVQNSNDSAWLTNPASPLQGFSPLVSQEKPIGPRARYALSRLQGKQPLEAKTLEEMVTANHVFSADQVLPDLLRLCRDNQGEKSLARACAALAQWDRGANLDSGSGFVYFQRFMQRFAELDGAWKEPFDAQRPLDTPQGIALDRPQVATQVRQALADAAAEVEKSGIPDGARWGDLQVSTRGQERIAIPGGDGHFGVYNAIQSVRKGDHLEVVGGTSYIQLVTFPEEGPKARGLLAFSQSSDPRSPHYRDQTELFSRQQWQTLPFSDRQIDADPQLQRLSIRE
# Sequence of Serine/threonine-protein phosphatase (Q9BPW0 whole entry): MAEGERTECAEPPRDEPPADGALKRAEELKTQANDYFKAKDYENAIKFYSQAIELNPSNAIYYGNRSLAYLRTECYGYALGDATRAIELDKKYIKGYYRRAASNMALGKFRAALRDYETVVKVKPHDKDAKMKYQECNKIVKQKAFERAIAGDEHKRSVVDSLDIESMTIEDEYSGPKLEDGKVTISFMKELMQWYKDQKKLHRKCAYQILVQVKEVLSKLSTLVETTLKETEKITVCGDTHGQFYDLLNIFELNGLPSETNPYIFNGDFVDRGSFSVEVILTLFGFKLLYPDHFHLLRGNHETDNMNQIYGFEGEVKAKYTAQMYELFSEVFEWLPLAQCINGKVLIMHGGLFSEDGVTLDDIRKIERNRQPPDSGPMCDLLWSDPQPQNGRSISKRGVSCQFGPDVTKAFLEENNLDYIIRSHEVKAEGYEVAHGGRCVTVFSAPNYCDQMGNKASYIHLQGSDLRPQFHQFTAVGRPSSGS
# Sequence of Luciferin 4-monooxygenase (P08659 whole entry): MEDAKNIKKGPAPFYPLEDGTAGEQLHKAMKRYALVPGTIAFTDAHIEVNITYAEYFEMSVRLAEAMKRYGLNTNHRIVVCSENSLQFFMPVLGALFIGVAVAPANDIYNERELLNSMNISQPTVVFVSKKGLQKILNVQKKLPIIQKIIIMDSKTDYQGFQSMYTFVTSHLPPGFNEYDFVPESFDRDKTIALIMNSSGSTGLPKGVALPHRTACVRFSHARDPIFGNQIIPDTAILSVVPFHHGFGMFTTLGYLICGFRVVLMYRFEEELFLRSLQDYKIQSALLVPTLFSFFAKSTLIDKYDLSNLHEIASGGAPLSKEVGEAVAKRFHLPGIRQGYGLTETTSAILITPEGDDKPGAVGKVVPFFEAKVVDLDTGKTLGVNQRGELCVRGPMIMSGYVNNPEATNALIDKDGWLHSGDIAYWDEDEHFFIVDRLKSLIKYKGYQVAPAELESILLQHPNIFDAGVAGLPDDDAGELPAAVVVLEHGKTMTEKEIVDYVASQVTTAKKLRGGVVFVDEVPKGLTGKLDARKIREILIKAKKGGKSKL
# Sequence of Signal transducer and activator of transcription 3 (P40763 whole entry): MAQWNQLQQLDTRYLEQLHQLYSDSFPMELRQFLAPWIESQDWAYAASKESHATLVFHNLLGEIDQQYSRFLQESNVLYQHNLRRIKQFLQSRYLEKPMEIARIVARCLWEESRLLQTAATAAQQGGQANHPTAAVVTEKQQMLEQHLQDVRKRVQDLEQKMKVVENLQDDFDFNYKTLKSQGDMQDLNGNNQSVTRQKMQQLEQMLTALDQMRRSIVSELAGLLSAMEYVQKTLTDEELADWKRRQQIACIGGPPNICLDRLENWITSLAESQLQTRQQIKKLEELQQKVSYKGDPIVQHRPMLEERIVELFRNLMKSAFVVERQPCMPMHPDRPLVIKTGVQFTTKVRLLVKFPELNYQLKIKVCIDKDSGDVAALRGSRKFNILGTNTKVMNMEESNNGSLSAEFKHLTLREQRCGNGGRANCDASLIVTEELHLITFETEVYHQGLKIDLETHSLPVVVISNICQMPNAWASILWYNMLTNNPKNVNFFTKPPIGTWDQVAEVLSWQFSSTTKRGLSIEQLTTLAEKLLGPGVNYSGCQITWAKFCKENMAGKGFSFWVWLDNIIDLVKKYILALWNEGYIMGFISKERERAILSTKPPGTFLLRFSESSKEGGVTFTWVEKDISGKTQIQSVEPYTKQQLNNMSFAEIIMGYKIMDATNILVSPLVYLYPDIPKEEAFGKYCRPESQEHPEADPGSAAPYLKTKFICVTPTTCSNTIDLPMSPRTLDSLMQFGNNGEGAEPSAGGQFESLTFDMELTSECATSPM
structure (smiles),measurement,setting,value
CCCCCOc1ccc(NC(=O)C(=O)NCCCn2ccnc2)cc1,IC50,[1],> 80 µM (inactive)
CCCN(CCC)C(=O)C1c2ccccc2Oc2ccccc21,AC50,HeLa,81.4 µM (active)
O=C(Nc1nc2c(s1)CCCC2)C1COc2ccccc2O1 (stereo unspecified),AC50,[2],6.29 µM (active)
same,EC50,[3],< 0.2 µM (active)
same,EC50,HT-1080,> 50 µM (not active)
same,EC50,[4],6.51 µM (active)
same,EC50,[5],5.78 µM (active)
same,AC50,[6],12.1 µM (active)
O=C(CCCn1c(=S)[nH]c2ccccc2c1=O)N1CCN(c2cccc(O)c2)CC1,IC50,Estrogen receptor,1.62 µM (not active)
O=C(O)C1CCCCC1C(=O)Nc1nc(-c2ccc(Cl)s2)cs1 (stereo unspecified),AC50,Caspase-6,32.9 µM (active)
same,IC50,[7],38.5 µM (active)
Cc1ccc(-n2cc(CNCCn3nc(C)cc3C)c(-c3ccc(F)cc3)n2)cc1,CC50,[8],23.5 µM (active)
same,IC50,[9],> 35 µM (not active)
same,IC50,cells,4.38 µM (active)
same,CC50,[10],> 40 µM (active)
same,IC50,[11],10.6 µM (not active)
Cn1c(=O)c2ccccc2n2c(CCl)nnc12,CC50,Vero,18 µM (active)
same,CC50,[12],30.5 µM (active)
O=C(Nc1ccc(Cl)cc1)c1cccs1,EC50,[13],> 50 µM (active)
N#CC(c1ccc(Cl)nn1)c1ccc(Cl)cc1Cl (stereo unspecified),AC50,[14],0.646 µM (active)
O=C(C[n+]1ccccc1)c1ccc(Cl)cc1,IC50,[15],5.96 µM (active)
same,IC50,[16],> 100 µM (inactive)
CCCOc1ccc(C2C(C(=O)c3ccc(C)o3)=C(O)C(=O)N2Cc2ccco2)cc1OCC (stereo unspecified),IC50,NS3,5.19 µM (active)
CCn1c2ccccc2c2cc(NC(=O)COC(=O)c3ccc(NC(=O)CC#N)cc3)ccc21,IC50,[17],> 67 µM (not active)
same,IC50,[18],7.27 µM (active)
CCc1cc[n+](-c2[n-]c(=O)sc2C=O)cc1,EC50,[19],11.8 µM (active)
same,AC50,Salmon testes DNA,141 µM (active)
same,EC50,[20],16.7 µM (active)
same,AC50,ORF 73,73.5 µM (active)
COc1cc(NC(=O)c2cc(C3CC3)on2)ccc1Br,EC50,[21],> 5.57 µM (inactive)
COCCn1/c(=N/C(=O)/C=C/c2cccs2)sc2cc(NC(C)=O)ccc21,Absolute IC50 (XBP1),X-box-binding protein 1,10 µM
